Source: patent US8613914B2, “Peptidomimetic sulfamide compounds and antiviral uses thereof” (Novartis AG, priority 2009, dated 2013)

Target: HCV NS3-4A serine protease (full-length NS3-4A protein) (Hepatitis C virus genotype 1a (isolate 1) (HCV), UniProt P26664)
Experiment: HCV NS3-4A protease assay
Type: biochemical, HCV genotype 1a
Details: strain HCV-1, fluorogenic peptide substrate, read-out: Protease assay Ex. 12 IC50
Protocol: The inhibitory activity of certain compounds of Table A against HCV NS3-4A serine protease is determined in a homogenous assay using the full-length NS3-4A protein (genotype 1a, strain HCV-1) and a commercially available internally-quenched fluorogenic peptide substrate as described by Taliani, M., et al. 1996 Anal. Biochem. 240:60-67, which is incorporated by reference in its entirety.

Sequence of HCV NS3-4A serine protease (full-length NS3-4A protein) (P26664 1027-1657): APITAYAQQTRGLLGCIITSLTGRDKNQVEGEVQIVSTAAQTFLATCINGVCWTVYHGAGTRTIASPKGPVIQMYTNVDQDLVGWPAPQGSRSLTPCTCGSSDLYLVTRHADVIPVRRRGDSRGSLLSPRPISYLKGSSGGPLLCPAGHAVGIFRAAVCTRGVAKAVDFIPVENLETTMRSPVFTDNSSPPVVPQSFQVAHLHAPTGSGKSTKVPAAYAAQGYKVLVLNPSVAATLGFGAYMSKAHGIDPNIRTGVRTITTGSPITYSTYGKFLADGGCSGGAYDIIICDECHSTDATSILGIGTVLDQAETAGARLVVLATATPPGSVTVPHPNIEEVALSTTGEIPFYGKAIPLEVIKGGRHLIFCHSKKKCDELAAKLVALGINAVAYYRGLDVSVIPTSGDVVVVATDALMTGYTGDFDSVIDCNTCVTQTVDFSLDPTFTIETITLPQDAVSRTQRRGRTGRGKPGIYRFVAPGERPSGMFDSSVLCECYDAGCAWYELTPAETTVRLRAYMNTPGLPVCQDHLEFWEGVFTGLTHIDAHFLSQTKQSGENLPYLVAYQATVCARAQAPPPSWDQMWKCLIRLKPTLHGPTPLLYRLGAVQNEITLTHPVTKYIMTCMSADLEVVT
Sequence of HCV NS3-4A serine protease (full-length NS3-4A protein) (P26664 1658-1711 partner): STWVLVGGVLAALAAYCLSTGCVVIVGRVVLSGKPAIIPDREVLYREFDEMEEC

| SMILES | IC50 [nM] |
| --- | --- |
| C=C[C@@H]1C[C@]1(NC(=O)[C@@H]1C[C@@]2(CN1C(=O)[C@@H](NC(=O)[C@@H](NC(=O)[C@@H]1CCCCN1C(C)C)C1CCCCC1)C(C)(C)C)C(C)(C)C21CCC1)C(=O)NS(=O)(=O)N1CCCC1 [Compound 13, (5R,8S)-7-[(2S)-2-{[(2S)-2-cyclohexyl-2-({[(2S)-1-isopropylpiperidin-2-yl]carbonyl}amino)acetyl]amino}-3,3-dimethylbutanoyl]-10,10-dimethyl-N-{(1R,2S)-1-[(pyrrolidin-1-ylsulfonyl)carbamoyl]-2-vinylcyclopropyl}-7-azadispiro[3.0.4.1]decane-8-carboxamide] | 3 |
| C=C[C@@H]1C[C@]1(NC(=O)[C@@H]1C[C@@]2(CN1C(=O)[C@@H](NC(=O)C(Nc1cccnc1)C(C)(C)C)C(C)(C)C)C(C)(C)C21CCC1)C(=O)NS(=O)(=O)N1CCCC1 (stereo partly drawn) [Compound 51, (5R,8S)-7-[(2S)-2-{[3,3-dimethyl-2-(pyridin-3-ylamino)butanoyl]amino}-3,3-dimethylbutanoyl]-10,10-dimethyl-N-{(1R,2S)-1-[(pyrrolidin-1-ylsulfonyl)carbamoyl]-2-vinylcyclopropyl}-7-azadispiro[3.0.4.1]decane-8-carboxamide] | 1150 |
| C=C[C@@H]1C[C@]1(NC(=O)[C@@H]1C[C@@]2(CN1C(=O)[C@@H](NC(=O)CC1(CC#N)CCCCC1)C(C)(C)C)C(C)(C)C21CCC1)C(=O)NS(=O)(=O)N1CCCC1 [Compound 61, (5R,8S)-7-[(2S)-2-({[1-(cyanomethyl)cyclohexyl]acetyl}amino)-3,3-dimethylbutanoyl]-10,10-dimethyl-N-{(1R,2S)-1-[(pyrrolidin-1-ylsulfonyl)carbamoyl]-2-vinylcyclopropyl}-7-azadispiro[3.0.4.1]decane-8-carboxamide] | 750 |
| C=C[C@@H]1C[C@]1(NC(=O)[C@@H]1C[C@@]2(CN1C(=O)[C@@H](NC(=O)[C@@H](NC(=O)c1cc3ccccc3n1C)C1CCCCC1)C(C)(C)C)C(C)(C)C21CCC1)C(=O)NS(=O)(=O)N1CCCC1 [Compound 178, (5R,8S)-7-{(2S)-2-[(cyclohexyl{[(1-methyl-1H-indol-2-yl)carbonyl]amino}acetyl)amino]-3,3-dimethylbutanoyl}-10,10-dimethyl-N-{(1R,2S)-1-[(pyrrolidin-1-ylsulfonyl)carbamoyl]-2-vinylcyclopropyl}-7-azadispiro[3.0.4.1]decane-8-carboxamide] | 80 |
| C=C[C@@H]1C[C@]1(NC(=O)[C@@H]1C[C@@]2(CN1C(=O)[C@@H](NC(=O)[C@@H](NC(=O)[C@@H]1CCCCN1C)C1CCCCC1)C(C)(C)C)C(C)(C)C21CCC1)C(=O)NS(=O)(=O)N(CC)CC [Compound 118, (5R,8S)-7-[(2S)-2-{[(2S)-2-cyclohexyl-2-({[(2S)-1-methylpiperidin-2-yl]carbonyl}amino)acetyl]amino}-3,3-dimethylbutanoyl]-N-[(1R,2S)-1-{[(diethylamino)sulfonyl]carbamoyl}-2-vinylcyclopropyl]-10,10-dimethyl-7-azadispiro[3.0.4.1]decane-8-carboxamide] | 4.5 |
| C=CC1CC1(NC(=O)[C@@H]1C[C@@]2(CN1C(=O)[C@@H](NC(=O)[C@@H](NC(=O)C1CCCCN1C(C)C)C(C)(C)C)C(C)(C)C)C(C)(C)C21CCC1)C(=O)NS(=O)(=O)N1CCC[C@H]1CO (stereo partly drawn) [Compound 163, (5R,8S)-N-[1-({[(2S)-2-(hydroxymethyl)pyrrolidin-1-yl]sulfonyl}carbamoyl)-2-vinylcyclopropyl]-7-[(2S)-2-{[(2S)-2-{[(1-isopropylpiperidin-2-yl)carbonyl]amino}-3,3-dimethylbutanoyl]amino}-3,3-dimethylbutanoyl]-10,10-dimethyl-7-azadispiro[3.0.4.1]decane-8-carboxamide] | 1500 |
